These results are taken from patent publication EP3977982A1 (Acerus Biopharma Inc., priority 2011, dated 2012).

Where two headings read alike, the source gives them in different places. Where only a bound is given, the exact number is not on record here.

What is called Tmax is the time at which the peak concentration occurs.

The conditions of data set [1]: nasal, dissolved in polyethylene glycol (200 mg/ml); cited from earlier work.
For data set [2] the following is noted: formulated in ethanol/propylene glycol/water; cited from earlier work.
For data set [3] the following is noted: cited from earlier work.
For data set [4] the following is noted: nasal, cited from earlier work.
The conditions of data set [5]: drug substance; cited from earlier work.
For data set [6], the target named is T1, sex hormone binding globulin (SHBG) (Homo sapiens, UniProt P04278).
T1 sequence (P04278 30-402): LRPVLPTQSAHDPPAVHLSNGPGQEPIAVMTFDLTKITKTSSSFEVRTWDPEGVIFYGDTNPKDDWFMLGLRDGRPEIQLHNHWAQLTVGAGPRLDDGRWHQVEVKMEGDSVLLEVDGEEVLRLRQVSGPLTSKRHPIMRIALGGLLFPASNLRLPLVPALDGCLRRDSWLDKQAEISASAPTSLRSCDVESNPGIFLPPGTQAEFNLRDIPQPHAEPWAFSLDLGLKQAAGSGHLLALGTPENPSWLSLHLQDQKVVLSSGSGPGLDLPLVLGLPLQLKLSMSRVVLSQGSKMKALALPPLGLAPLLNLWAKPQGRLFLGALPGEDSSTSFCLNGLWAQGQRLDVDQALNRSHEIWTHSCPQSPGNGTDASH
The conditions noted are these: cited from earlier work.

The nature of data set [7]: pKa assessment of testosterone. The conditions noted are these: inferred from molecular structure, no protonatable groups.
Data set [8] can be described thus: Solubility of testosterone in water, solvents, oils and vehicles.

Consider `CC(=O)[C@H]1CC[C@H]2[C@@H]3CCC4=CC(=O)CC[C@]4(C)[C@H]3CC[C@]12C` [progesterone], for which the Tmax in data set [1] is 30 min; in data set [2] it was 5.5 min; in data set [3] (nasal powder mixtures, co-ground and co-lyophilized progesterone/cyclodextrin), 2 to 5 min. Besides, the “duration of serum level” value in data set [1] was “at least 8 hours”. Also, the serum level decrease in data set [3] (nasal powder mixtures progesterone/cyclodextrin) is given as ≤ 20 min.
In the case of `CN(C)CC(=O)O[C@H]1CC[C@H]2[C@@H]3CCC4=CC(=O)CC[C@]4(C)[C@H]3CC[C@]12C` [testosterone 17β-N,N-dimethylglycinate], the “time to peak plasma concentrations” value is ≤ 12 min in data set [4] (25 mg dose) and ≤ 20 min in data set [4] (50 mg dose). The elimination half-lives entry in data set [4] is given as “about 55 min”.
Consider `C[C@]12CC[C@H]3[C@@H](CCC4=CC(=O)CC[C@@]43C)[C@@H]1CC[C@@H]2O` [testosterone, Testosterone], for which the retest period in data set [5] is reported as 5 years. Moreover, the “testosterone remaining unbound (free)” value in data set [6] (in men) is recorded as “about 2%”; in data set [6] (in women) it was “up to 3%”. For the same compound, the pKa entry in data set [7] is given as “no pKa value in the range 1-14”. In data set [8] (DMI used in conjunction with the other excipients), the “testosterone levels in the gel” value is listed as ≥ 8.0%. Also, the “testosterone dissolved by solvent alone” value in data set [8] (Diethyleneglycol ethyl ether alone) is reported as “more than 10%”. The “testosterone dissolved by solvent” value in data set [8] (Dimethyl isosorbide (DMI)) is given as “more than 12%”. The solubility entry in data set [8] (acetone and isopropanol) is listed as “soluble”; in data set [8] (methanol and ethanol), “freely soluble”; in data set [8] (n-heptane), “insoluble”. Moreover, the “amount an aqueous solution can contain” value in data set [8] (aqueous solution) turned out to be 0.002 mg per 100 µL. Besides, the “solubility of testosterone in oils” value is listed as “up to 4%” in data set [8] (castor oil); 0.5% in data set [8] (corn oil); 0.7% in data set [8] (cottonseed oil); 0.8% in data set [8] (isopropylmyristate); 0.5% in data set [8] (peanut oil); 0.6% in data set [8] (soybean oil). For the same compound, the “amount a castor oil solution can contain” value in data set [8] (castor oil solution) is given as “up to 4.5 mg per 100 µL”. Besides, the “Testosterone solubility in the oil based gel” value in data set [8] (oil based TBS-1A gel (so in the source)) was “about 4.5%”.
